Earlier results as cited in publication PMC4411882, “Developmental Potential for Endomorphin Opioidmimetic Drugs” (International Journal of Medicinal Chemistry, 2012).
Where a SMILES comes first, the peptide text is derived from it. [ ]: non-standard residue; d: D form. The star is where a group is joined. Dmt = Cc1cc(O)cc(C)c1C[C@H](N)C(=O)O; NHPhenethyl = c1ccc(CCN*)cc1; NHBn = c1ccc(CN*)cc1; NHPh = c1ccc(N*)cc1

Tests used:
[1] = biological target: T1, μ-opioid receptor (GPI) (Cavia porcellus, UniProt P97266); parameters: species or system guinea pig ileum
T1 construct: gene OPRM1; guinea pig ileum (GPI) bioassay
T1 sequence (P97266 whole entry): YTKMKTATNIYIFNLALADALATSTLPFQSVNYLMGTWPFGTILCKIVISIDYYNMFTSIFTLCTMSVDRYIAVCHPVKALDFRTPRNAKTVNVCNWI
Excerpt: (§1) Therefore, we substituted hydrophobic groups in lieu of the phenethyl group to develop the class of H-Dmt-Pro-Phe-NH-X ligands (Figure 1).

[2] = biological target: T2, δ-opioid receptor (MVD) (Mus musculus, UniProt P32300); parameters: species or system mouse vas deferens
T2 construct: gene Oprd1; mouse vas deferens (MVD) bioassay
T2 sequence (P32300 whole entry): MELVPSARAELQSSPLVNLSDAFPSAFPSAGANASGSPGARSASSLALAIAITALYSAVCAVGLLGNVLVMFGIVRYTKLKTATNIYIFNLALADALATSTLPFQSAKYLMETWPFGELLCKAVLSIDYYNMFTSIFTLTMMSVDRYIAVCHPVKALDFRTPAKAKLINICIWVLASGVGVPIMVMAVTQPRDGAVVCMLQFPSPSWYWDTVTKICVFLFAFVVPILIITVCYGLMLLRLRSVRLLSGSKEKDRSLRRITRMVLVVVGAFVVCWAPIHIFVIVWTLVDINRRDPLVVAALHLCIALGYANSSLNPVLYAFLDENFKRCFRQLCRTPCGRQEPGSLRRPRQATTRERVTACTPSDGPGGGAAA
Excerpt: as §1

[3] = biological target: μ-opioid receptor (Rattus norvegicus, UniProt P33535); parameters: gene Oprm1; rat brain P2 synaptosomal preparations; species or system rat brain P2 synaptosomal preparations; conditions: read-out: Kiμ
μ-opioid receptor, sequence (P33535 whole entry): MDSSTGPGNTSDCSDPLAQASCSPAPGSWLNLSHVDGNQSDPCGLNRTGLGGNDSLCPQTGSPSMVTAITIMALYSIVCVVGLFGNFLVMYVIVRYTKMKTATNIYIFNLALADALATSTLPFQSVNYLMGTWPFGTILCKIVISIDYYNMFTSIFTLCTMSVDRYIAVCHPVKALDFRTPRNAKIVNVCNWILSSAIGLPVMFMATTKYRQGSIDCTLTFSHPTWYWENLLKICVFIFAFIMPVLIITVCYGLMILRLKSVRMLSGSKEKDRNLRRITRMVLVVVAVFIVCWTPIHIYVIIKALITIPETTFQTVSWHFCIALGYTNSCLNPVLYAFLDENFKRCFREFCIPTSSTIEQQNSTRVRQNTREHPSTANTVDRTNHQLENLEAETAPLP

[4] = biological target: δ-opioid receptor (Rattus norvegicus, UniProt P33533); parameters: gene Oprd1; rat brain P2 synaptosomal preparations; species or system rat brain P2 synaptosomal preparations; conditions: read-out: Kiδ
δ-opioid receptor, sequence (P33533 whole entry): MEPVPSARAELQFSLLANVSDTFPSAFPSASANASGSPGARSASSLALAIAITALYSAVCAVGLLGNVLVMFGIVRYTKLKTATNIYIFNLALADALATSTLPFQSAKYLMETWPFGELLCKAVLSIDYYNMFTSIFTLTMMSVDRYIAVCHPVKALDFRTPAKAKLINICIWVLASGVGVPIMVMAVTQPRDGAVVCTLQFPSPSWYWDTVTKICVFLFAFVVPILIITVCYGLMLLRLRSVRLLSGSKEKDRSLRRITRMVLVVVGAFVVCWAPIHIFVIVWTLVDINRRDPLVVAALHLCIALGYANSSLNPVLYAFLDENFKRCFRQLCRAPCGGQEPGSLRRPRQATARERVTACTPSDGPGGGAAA

| Compound | IC50 [1] [nM] | IC50 [2] [nM] | Ki [3] [nM] | Ki [4] [nM] |
| --- | --- | --- | --- | --- |
| C=CCNC(Cc1c(C)cc(O)cc1C)C(=O)NCCCc1[nH]c(=O)c(CCCNC(=O)C(Cc2c(C)cc(O)cc2C)NCC=C)nc1C (centres unmarked) [compound 50, 3,6-bis[N-allyl-Dmt-NH-propyl]-5-methyl-2(1H)-pyrazinone] | > 10000 | > 10000 | 6.94 | 77.8 |
| Cc1cc(O)cc(C)c1C[C@H](N)C(=O)N1CCC[C@H]1C(=O)N[C@@H](Cc1ccccc1)C(=O)Nc1cnc2ccccc2c1 [compound 29, H-Dmt-Pro-Phe-NH-3-Qln] | 9.14 | > 10000 | 0.33 | 190 |
| Cc1cc(O)cc(C)c1C[C@H](N)C(=O)N1CCC[C@H]1C(=O)N[C@@H](Cc1ccccc1)C(=O)Nc1cccc2cnccc12 [compound 33, H-Dmt-Pro-Phe-NH-5-Isq] | 0.94 | > 10000 | 0.19 | 98.3 |
| C=CCN[C@@H](Cc1c(C)cc(O)cc1C)C(=O)N1CCC[C@H]1C(=O)N[C@@H](Cc1c[nH]c2ccccc12)C(=O)N[C@@H](Cc1ccccc1)C(N)=O [compound 47, [N-allyl-Dmt^1]EM-1] | > 10000 | > 10000 | 0.26 | 10.3 |
| NC(=O)[C@H](Cc1ccccc1)NC(=O)[C@@H]1CCCN1C(=O)[C@@H](N)Cc1ccc(O)cc1 [compound 18, H-Tyr-Pro-Phe-NH2] (H-Tyr-Pro-Phe-NH2) | – | – | 46.1 | 15900 |
| Cc1cc(O)cc(C)c1C[C@H](N)C(=O)NCCCCCCNC(=O)[C@@H](N)Cc1c(C)cc(O)cc1C [compound 53, Dmt-NH-(CH2)6-NH-Dmt] | 3.08 | > 10000 | 0.053 | 46.1 |
| Cc1cc(O)cc(C)c1C[C@H](N)C(=O)N1CCC[C@H]1C(=O)N[C@@H](Cc1ccccc1)C(=O)Nc1cccnc1 [compound 26, H-Dmt-Pro-Phe-NH-3-Pyr] | 72.8 | > 10000 | 0.17 | 287 |
| Cc1cc(O)cc(C)c1CC(N)C(=O)N1Cc2ccccc2CC1C(=O)NCCCCc1[nH]c(=O)c(CCCCNC(=O)C2Cc3ccccc3CN2C(=O)C(N)Cc2c(C)cc(O)cc2C)nc1C (stereo not drawn) [compound 62, 3,6-bis[Dmt-Tic-NH(CH2)4]-5-methyl-2(1H)-pyrazinone] | > 10000 | > 10000 | 1.74 | 0.323 |
| C=CCN[C@@H](Cc1c(C)cc(O)cc1C)C(=O)N1CCC[C@H]1C(=O)N[C@@H](Cc1ccccc1)C(=O)N[C@@H](Cc1ccccc1)C(N)=O [compound 48, [N-allyl-Dmt^1]EM-2] | > 10000 | > 10000 | 0.45 | 560 |
| Cc1cc(O)cc(C)c1CC(N)C(=O)NCCCc1[nH]c(=O)c(CCCNC(=O)C(N)Cc2c(C)cc(O)cc2C)nc1C (centres unmarked) [compound 57, 3,6-bis[Dmt-NH(CH2)3]-5-methyl-2(1H)-pyrazinone] | 1.33 | > 10000 | 0.042 | 13.2 |
| Cc1cc(O)cc(C)c1CC(N)C(=O)NCCCCc1[nH]c(=O)c(CCCCNC(=O)C(N)Cc2c(C)cc(O)cc2C)nc1C (centres unmarked) [compound 58, 3,6-bis[Dmt-NH(CH2)4]-5-methyl-2(1H)-pyrazinone] | 1.9 | 41.5 | 0.114 | 23.2 |
| Cc1cc(O)cc(C)c1C[C@H](N)C(=O)N1CCC[C@H]1C(=O)N[C@@H](Cc1ccccc1)C(=O)NCc1ccccc1 [compound 23, H-Dmt-Pro-Phe-NH-Bzl] (H-[Dmt]-Pro-Phe-NHBn) | 22 | > 10000 | 0.52 | 13.8 |
| H-Mmt-Pro-Phe-Phe-NH2 [compound 34] | 0.924 | 28.7 | 0.132 | 529 |
| Cc1cc(O)cc(C)c1C[C@H](N)C(=O)N1CCC[C@H]1C(=O)N[C@@H](Cc1ccccc1)C(=O)Nc1ccccc1 [compound 24, H-Dmt-Pro-Phe-NH-Ph] (H-[Dmt]-Pro-Phe-NHPh) | 37.7 | > 10000 | 1.11 | 20.6 |
| Cc1cc(O)cc(C)c1C[C@H](N)C(=O)NCCCCCCCCNC(=O)[C@@H](N)Cc1c(C)cc(O)cc1C [compound 54, Dmt-NH-(CH2)8-NH-Dmt] | 53.7 | > 10000 | 0.19 | 14.8 |
| Cc1cc(O)cc(C)c1C[C@H](N)C(=O)N1CCC[C@H]1C(=O)N[C@@H](Cc1ccccc1)C(=O)Nc1cccc2cccnc12 [compound 32, H-Dmt-Pro-Phe-NH-8-Qln] | 445 | 2980 | 0.49 | 33.1 |
| Cc1cc(O)cc(C)c1CC(N)C(=O)N1Cc2ccccc2CC1C(=O)NCCCCc1nc(C)c(CCCNC(=O)C2Cc3ccccc3CN2C(=O)C(N)Cc2c(C)cc(O)cc2C)[nH]c1=O (stereo not drawn) [compound 64, 3-[Dmt-Tic-NH(CH2)4]-6-[Dmt-Tic-NH(CH2)3]-5-methyl-2(1H)-pyrazinone] | > 10000 | > 10000 | 2.28 | 0.092 |
| H-Dit-Pro-Phe-Phe-NH2 [compound 38] | 299 | > 10000 | 2.29 | 105 |

| Compound | IC50 [1] [nM] | IC50 [2] [nM] | Ki [3] [nM] | Ki [4] [nM] |
| --- | --- | --- | --- | --- |
| H-Dmt-Pro-Phe-NH-4-Pyr [compound 25] | 11.8 | > 10000 | – | 52.6 |
| Cc1cc(O)cc(C(C)C)c1C[C@H](N)C(=O)N1CCC[C@H]1C(=O)N[C@@H](Cc1ccccc1)C(=O)N[C@@H](Cc1ccccc1)C(N)=O [compound 36, H-Imt-Pro-Phe-Phe-NH2] | 10.6 | 601 | 0.15 | 190 |
| H-Dmt-Pro-Tmp-Phe-NH2 [compound 44] | 0.21 | > 10000 | 0.18 | 1.83 |
| H-Dmt-Pro-Mmp-Phe-NH2 [compound 40] | 0.16 | > 10000 | 0.18 | 4.61 |
| Cc1cc(O)cc(C)c1C[C@H](N)C(=O)N1Cc2ccccc2C[C@H]1C(=O)NCCCCNC(=O)[C@@H]1Cc2ccccc2CN1C(=O)[C@@H](N)Cc1c(C)cc(O)cc1C [compound 66, bis[Dmt-Tic-NH]butane] | > 10000 | > 10000 | 5.72 | 0.124 |
| CCc1cccc(C)c1CC(NC(=O)C1CCCN1C(=O)C(N)Cc1c(C)cc(O)cc1C)C(=O)NC(Cc1ccccc1)C(N)=O (stereo not drawn) [compound 45, H-Dmt-Pro-Emp-Phe-NH2] | 0.17 | 0.51 | 0.21 | 3.03 |
| Cc1cc(O)cc(C)c1CC(N)C(=O)N1Cc2ccccc2CC1C(=O)NCCc1[nH]c(=O)c(CCNC(=O)C2Cc3ccccc3CN2C(=O)C(N)Cc2c(C)cc(O)cc2C)nc1C (stereo not drawn) [compound 60, 3,6-bis[Dmt-Tic-NH(CH2)2]-5-methyl-2(1H)-pyrazinone] | > 10000 | > 10000 | 2.83 | 0.095 |
| Cc1cc(O)cc(C)c1CC(N)C(=O)NCCc1[nH]c(=O)c(CCNC(=O)C(N)Cc2c(C)cc(O)cc2C)nc1C (centres unmarked) [compound 56, 3,6-bis[Dmt-NH(CH2)2]-5-methyl-2(1H)-pyrazinone] | 12.9 | > 10000 | – | 7.26 |
| Cc1cc(O)cc(C)c1C[C@H](N)C(=O)N1CCC[C@H]1C(=O)N[C@@H](Cc1c(C)cccc1C(C)C)C(=O)N[C@@H](Cc1ccccc1)C(N)=O [compound 46, H-Dmt-Pro-Imp-Phe-NH2] | 0.2 | 5.56 | 0.32 | 4.61 |
| C=CCNC(Cc1c(C)cc(O)cc1C)C(=O)NCCCCCCNC(=O)C(Cc1c(C)cc(O)cc1C)NCC=C (centres unmarked) [compound 49, 1,6-bis[N-allyl-Dmt-NH]hexane] | > 10000 | > 10000 | 12.4 | 51.5 |
| Cc1cc(O)cc(C)c1C[C@H](N)C(=O)NCCCCNC(=O)[C@@H](N)Cc1c(C)cc(O)cc1C [compound 52, Dmt-NH-(CH2)4-NH-Dmt] | 5.33 | > 10000 | 0.041 | 53.4 |
| Cc1cc(O)cc(C)c1C[C@H](NC(=O)[C@@H]1CCCN1C(=O)[C@@H](N)Cc1c(C)cc(O)cc1C)C(=O)N[C@@H](Cc1ccccc1)C(N)=O [compound 43, H-Dmt-Pro-Dmt-Phe-NH2] (H-[Dmt]P[Dmt]F-NH2) | 1.94 | > 10000 | 0.092 | 80.8 |
| Cc1cc(O)cc(C)c1C[C@H](N)C(=O)N1CCC[C@H]1C(=O)N[C@@H](Cc1ccccc1)C(=O)NCCc1ccccc1 [compound 22, H-Dmt-Pro-Phe-NH-C2H4-Ph] (H-[Dmt]-Pro-Phe-NHPhenethyl) | 5.03 | > 10000 | 0.51 | 18 |
| Cc1cc(O)cc(C)c1CC(C(=O)N1Cc2ccccc2CC1C(=O)NCCCCCCNC(=O)C1Cc2ccccc2CN1C(=O)C(Cc1c(C)cc(O)cc1C)N(C)C)N(C)C (stereo not drawn) [compound 69, bis[N,N-dimethyl-Dmt-Tic-NH]hexane] | > 10000 | > 10000 | 2.21 | 0.06 |
| Cc1cc(O)cc(C)c1C[C@H](N)C(=O)N1CCC[C@H]1C(=O)N[C@@H](Cc1ccccc1)C(=O)Nc1cccc2ccccc12 [compound 28, H-Dmt-Pro-Phe-NH-1-Nph] | 0.49 | 5.47 | – | 19.9 |
| Cc1cc(O)cc(C)c1C[C@H](N)C(=O)N1Cc2ccccc2C[C@H]1C(=O)NCCCCCCNC(=O)[C@@H]1Cc2ccccc2CN1C(=O)[C@@H](N)Cc1c(C)cc(O)cc1C [compound 67, bis[Dmt-Tic-NH]hexane] | – | > 10000 | 1.79 | 0.129 |
| NC(=O)C(Cc1ccccc1)NC(=O)C(Cc1ccccc1)NC(=O)C1CCCN1C(=O)C(N)Cc1ccc(O)cc1 [compound 12, L-D-L-L (EM-2), [D-Pro^2]EM-2] | – | – | 512 | – |
